The values that follow come from ChEMBL document CHEMBL4184237, “Cytotoxic oligophenols from the rhizome of Wikstroemia indica” (Bioorg Med Chem Lett, 2018).

pIC50: −log10 of the molar value.

For data set [1], the system named is SW480. In words: Induction of apoptosis in human SW480 cells assessed as Bcl-xL protein level incubated for 48 hrs by Western blot analysis relative to untreated control. In kind it is functional.
In data set [2] the test system is SW480. In words: Induction of apoptosis in human SW480 cells assessed as early apoptotic cells level incubated for 48 hrs by Annexin V-FITC and PI double staining based flow cytometry (reference value: 2.75%). It counts as functional. A general note: A flow cytometer gives signals particle by particle.
Data set [3] has as its system T98G. In words: Induction of apoptosis in human T98G cells assessed as early apoptotic cells level incubated for 48 hrs by Annexin V-FITC and PI double staining based flow cytometry (reference value: 1.79%). It counts as functional.
The subject of data set [4] is SW480. In words: Effect on GAPDH protein expression human SW480 cells assessed as GAPDH protein level incubated for 48 hrs by Western blot analysis relative to untreated control. It counts as ADME, cell-based. Conditions: sw480, 48 h.
In data set [5] the test system is T98G. In words: Induction of apoptosis in human T98G cells assessed as viable cells level incubated for 48 hrs by Annexin V-FITC and PI double staining based flow cytometry (reference value: 91.3%). It counts as functional.
Data set [6] concerns T98G. In words: Induction of apoptosis in human T98G cells assessed as late apoptotic cells level incubated for 48 hrs by Annexin V-FITC and PI double staining based flow cytometry (reference value: 5.35%). In kind it is functional.
Data set [7] has as its system T98G. In words: Induction of apoptosis in human T98G cells assessed as necrotic cells level incubated for 48 hrs by Annexin V-FITC and PI double staining based flow cytometry (reference value: 1.66%). It counts as functional.
For the next data set, the system named is U-87 MG. In words: Cytotoxicity against human U87 cells assessed as reduction in cell viability incubated for 24 hrs by CCK8 assay. It counts as functional, cell-based, U-87MG ATCC.
Data set [8] concerns SW480. In words: Induction of apoptosis in human SW480 cells assessed as necrotic cells level incubated for 48 hrs by Annexin V-FITC and PI double staining based flow cytometry (reference value: 1.17%). It counts as functional.
Data set [9] concerns SW480. In words: Cytotoxicity against human SW480 cells assessed as reduction in cell viability incubated for 24 hrs by CCK8 assay. In kind it is functional, cell-based. Conditions: SW480, 24 h.
For data set [10], the system named is T98G. In words: Cytotoxicity against human T98G cells assessed as reduction in cell viability incubated for 24 hrs by CCK8 assay. It counts as functional, cell-based. Background: Tetrazolium assays rely on reduction of a dye to a coloured formazan, in cell work by metabolically active cells.
In data set [11] the test system is SW480. In words: Induction of apoptosis in human SW480 cells assessed as viable cells level incubated for 48 hrs by Annexin V-FITC and PI double staining based flow cytometry (reference value: 93.2%). In kind it is functional.
The test system of another data set is HCT-116. In words: Cytotoxicity against human HCT116 cells assessed as reduction in cell viability incubated for 24 hrs by CCK8 assay. It counts as functional, cell-based. Conditions: HCT-116, 24 h.
Data set [12] relates to SW480. In words: Induction of apoptosis in human SW480 cells assessed as late apoptotic cells level incubated for 48 hrs by Annexin V-FITC and PI double staining based flow cytometry (reference value: 2.09%). In kind it is functional.
Data set [13] deals with T98G. In words: Effect on GAPDH protein expression human T98G cells assessed as GAPDH protein level incubated for 48 hrs by Western blot analysis relative to untreated control. It counts as ADME, cell-based.
In data set [14] the test system is T98G. In words: Induction of apoptosis in human T98G cells assessed as Bax protein level incubated for 48 hrs by Western blot analysis relative to untreated control. In kind it is functional.
Data set [15] concerns SW480. In words: Induction of apoptosis in human SW480 cells assessed as Bax protein level incubated for 48 hrs by Western blot analysis relative to untreated control. In kind it is functional. In general terms: Immunoblotting shows a protein as a band on a membrane.
In data set [16] the test system is T98G. In words: Induction of apoptosis in human T98G cells assessed as Bcl-xL protein level incubated for 48 hrs by Western blot analysis relative to untreated control. It counts as functional.

A word on the pIC50: it is the IC50 on a negative log10 scale, so that one unit is a factor of ten. As for `O=c1c(-c2c(O)cc3c(c2O)C[C@@H](O)[C@H](c2ccc(O)cc2)O3)c(-c2ccc(O)cc2)oc2cc(O)cc(O)c12`, the “fold change (FC)” value in the data set on SW480 [1] is 0.8; in the data set on SW480 [4] it was 0.9; in the data set on T98G [13], 1; in the data set on T98G [14], 3.4; with SW480 [15] it was 2.3; with T98G [16] it was 0.7. For the same molecule, the Activity in the data set on SW480 [2] is listed as 34.2%; in the data set with T98G [3] it was 10.3%; in the data set on T98G [5], 62.9%; in the data set on T98G [6], 25.4%; with T98G [7], 1.36%; with SW480 [8], 1.31%. In addition, the Activity is recorded as 51.6% with SW480 [11] and 12.9% in the data set on SW480 [12]. The pIC50 in the data set on U-87 MG is 4.45; in the data set on SW480 [9], 4.75; in the data set with T98G [10], 4.51; in the data set on HCT-116, 4.61.

In the case of `O=c1ccc2ccc(Oc3cc4ccc(O[C@@H]5O[C@H](CO)[C@@H](O)[C@H](O)[C@H]5O)c(-c5c(O)ccc6ccc(=O)oc56)c4oc3=O)cc2o1`, the negative-log IC50 (pIC50) in the data set on U-87 MG, in the data set with SW480 [9], with T98G [10] and in the data set with HCT-116 was below 4.00 in each case.

On to `O=c1c(-c2c(O)cc3c(c2O)C[C@H](O)[C@H](c2ccc(O)c(O)c2)O3)c(-c2ccc(O)cc2)oc2cc(O)cc(O)c12`, for which the “fold change (FC)” value with SW480 [1] was found to be 0.6; in the data set with SW480 [4], 1; in the data set with T98G [13] it was 1; in the data set with T98G [14], 4.1; with SW480 [15], 1.9; in the data set on T98G [16], 0.4. Moreover, the Activity was 18.5% in the data set on SW480 [2]; 4.11% in the data set on T98G [3]; 79.4% with T98G [5]; 15% in the data set with T98G [6]; 1.55% in the data set on T98G [7]; 2.87% in the data set on SW480 [8]. Besides, the Activity in the data set with SW480 [11] is on record as 64.8%; in the data set with SW480 [12], 13.7%. The pIC50 in the data set on U-87 MG is 4.05; in the data set with SW480 [9], 4.15; with T98G [10], 4.08; in the data set with HCT-116, 4.06.

Take `O=c1c(-c2c(O)cc3c(c2O)C[C@@H](O)[C@@H](c2ccc(O)c(O)c2)O3)c(-c2ccc(O)cc2)oc2cc(O)cc(O)c12`: the “fold change (FC)” value was 0.7 with SW480 [1]; 1 with SW480 [4]; 0.9 in the data set with T98G [13]; 3.8 with T98G [14]; 2.4 in the data set on SW480 [15]; 0.7 in the data set on T98G [16]. In addition, the Activity with SW480 [2] was found to be 21.7%; in the data set with T98G [3] it was 17.8%; in the data set with T98G [5], 63.9%; in the data set on T98G [6] it was 17.2%; with T98G [7] it was 1.15%; with SW480 [8] it was 0.909%. In addition, the Activity amounted to 68.1% in the data set with SW480 [11] and 9.3% with SW480 [12]. For the same molecule, the pIC50 in the data set with U-87 MG was 4.49; in the data set with SW480 [9] it was 4.52; in the data set with T98G [10], 4.56; with HCT-116, 4.54.

As for `CC(=O)O[C@H]1C(=O)[C@@]2(C)[C@H]([C@H](OC(=O)c3ccccc3)[C@]3(O)C[C@H](OC(=O)[C@H](O)[C@@H](NC(=O)c4ccccc4)c4ccccc4)C(C)=C1C3(C)C)[C@]1(OC(C)=O)CO[C@@H]1C[C@@H]2O` [PACLITAXEL], the Activity worked out at 45.6% with SW480 [2]; 15% in the data set with T98G [3]; 25.6% in the data set on T98G [5]; 56.2% with T98G [6]; 3.23% with T98G [7]; 1.13% with SW480 [8]. For the same molecule, the Activity is reported as 33.6% with SW480 [11] and 14.7% in the data set on SW480 [12]. Moreover, the pIC50 in the data set on U-87 MG is 5.33; in the data set with SW480 [9], 6.72; in the data set with T98G [10], 6.13.
